Results as given in US20170246223A1 (priority 2016, published 2017).

How the values were obtained:
E. coli = assay: in vitro cytotoxicity screen of drugs co-incubated with E. coli (tumour cell survival, MTS); format: cell-based, E. coli Nissle 1917; settings: drug co-incubated with E. coli, bacteria removed, filtrate applied to tumour cells; change relative to reference cytotoxic effect (drug without bacteria)
Protocol: (§1) 1. Bacteria and Drug are mixed in DMEM medium, and co-incubated for 3 h at 37° C. 2. The drug is separated from bacteria using centrifugation and filtration. 3. The filter sterilised DMEM containing the transformed drug is applied to tumour cells in a 96 well plate. 4. Tumour cell viability is evaluated via the MTS assay for end point measurements.
Bioluminescent E. coli was described by us previously and cultured in the presence of […] erythromycin. Listeria welshimeri Serovar 6B SLCC5334 was purchased from ECACC and cultivated at 37° C. in Brain Heart Infusion (BHI) medium. B. breve UCC2003 and Lactococcus lactis (UCC Culture Collection) was routinely grown at 37° C. in reinforced clostridial medium and M17 medium respectively (Oxoid, Basingstoke, UK). All lactobacilli strains were a kind gift of Dr. Cormac Gahan, UCC School of microbiology, and were grown in lactobacillus MRS broth (Beckton Dickinson). The E. coli nitroreductase deletion mutants and parent strains were kindly provided by Dr. Antonio Valle and grown in LB broth/agar with appropriate antibiotics. The strain Δ+A was created by transforming AB502 (streptomycin, kanamycin sensitive derivative of parent strain AB1157) with the plasmid pNZ44 (chloramphenicol resistance) carrying the gene nfsA. The strain Δ+B was created by transforming AB502 with the plasmid pTrc99A (ampicillin resistance) containing the gene nfsB (see below).
Microtitre plates (96-well) were pre-seeded with 4000 cells/well in appropriate medium for each cell line and allowed to attach overnight. The next day, bacteria were cultured to log-phase or stationery phase (Gram-positive) resuspended in PBS and added to 2 mls of DMEM to an OD600mn of 0.1-0.2 for E. coli 0.05 for Lactococcus lactis, and 0.3-0.4 for the rest of the Grand-positives. Each strain was exposed for 2-3 h to drug in a tissue culture incubator. Bacteria were separated from the drug by centrifugation and filter sterilisation using 0.2 μm pore filters (Starsted) after which 200 μl of filtrate was transferred to each well. […] Cytotoxicity was quantified using an MTS staining with the Cell Titre 96 AQueous One solution Cell Proliferation Assay (Promega). The plates were measured and analysed in a Spectra max M2 (Molecular devices) spectrophotometer at 490 nm.

L. welshimeri = assay: in vitro cytotoxicity screen of drugs co-incubated with L. welshimeri (tumour cell survival, MTS); format: cell-based, Listeria welshimeri Serovar 6B SLCC5334; settings: drug co-incubated with L. welshimeri, bacteria removed, filtrate applied to tumour cells; change relative to reference cytotoxic effect (drug without bacteria)
Protocol: as §1
Bioluminescent E. coli was described by us previously and cultured in the presence of […] erythromycin. Listeria welshimeri Serovar 6B SLCC5334 was purchased from ECACC and cultivated at 37° C. in Brain Heart Infusion (BHI) medium. B. breve UCC2003 and Lactococcus lactis (UCC Culture Collection) was routinely grown at 37° C. in reinforced clostridial medium and M17 medium respectively (Oxoid, Basingstoke, UK). All lactobacilli strains were a kind gift of Dr. Cormac Gahan, UCC School of microbiology, and were grown in lactobacillus MRS broth (Beckton Dickinson). […]
Microtitre plates (96-well) were pre-seeded with 4000 cells/well in appropriate medium for each cell line and allowed to attach overnight. […] Cytotoxicity was quantified using an MTS staining with the Cell Titre 96 AQueous One solution Cell Proliferation Assay (Promega). The plates were measured and analysed in a Spectra max M2 (Molecular devices) spectrophotometer at 490 nm.

CT26 tumours = assay: Subcutaneous flank CT26 tumours in Balb/c mice, bacteria i.t. plus drug i.p., survival; format: in vivo
Protocol: Subcutaneous flank CT26 tumours growing in Balb/c mice were injected i.t with bacteria or PBS vehicle alone. Gemcitabine (60 mg/kg) was injected i.p. five times at three day intervals. FIG. 3A) Tumour volume (%) relative to the first day of gemcitabine injection (day 0) is shown. *P<0.03, **P=0.002 for gemcitabine alone versus gemcitabine+bacteria. […] Data are expressed as mean±SEM of 4 to 8 individual mice per group.
Subcutaneous flank CT26 tumours growing in Balb/c mice were injected i.t with bacteria or PBS vehicle alone. CB1954 (20 mg/kg) was injected i.p. for the duration of the experiment at 3 day intervals. FIG. 4A) Tumour volume (%) relative to the first day of CB1954 injection (day 0) is shown. […] P=0.0374). Data are expressed as mean±SEM of 3-5 individual mice per group.
FIGS. 12A-12D: Tumour therapy via in vivo activation of prodrugs. BALB/c mice bearing subcutaneous CT26 flank tumours colonised by E. coli Nissle 1917 received IP injections of CB1954+PBS, 5-FC+PBS, CB1954+5-FC or PBS three times per week. Tumours were monitored for changes in volume and luminescence (where applicable) from live bacteria on each treatment day. FIG. 12A) The change in bacterial luminescence (relative to day 0) from tumour colonising luminescent E. coli is shown. […] FIG. 12B) Changes in CT26 tumour volume were monitored until the first death in the group determined by a predefined endpoint. FIG. 12C-12D) Survival plot of each group starting from the first day of bacteria/drug administration.
Animals and tumour induction: 6-8 week old female BALB/c mice weighing approximately 18-20 g were kept as previously described. For tumour induction, a 200 μl suspension of 2×10^5 CT26 cells in serum free Dulbecco's Modified Eagle's Medium (DMEM) culture medium were injected subcutaneously into the flank of BALB/c mice. The viability of inoculated cells was determined using the Nucleocounter system (ChemoMetec). Tumour growth was monitored three times per week by caliper measurement and mice were randomly assigned to groups when the tumours reached approximately 100 mm^3 in volume. Mice were culled once tumours reached 1.5×1.5 cm in size (predetermined endpoint).
Bacterial administration to mice: Bacteria were grown overnight in LB medium and in a shaking incubator at 37° C. These bacteria were used to inoculate fresh growth medium and allowed to grow until reaching OD600 0.6. […]
Statistical analysis For biological in vitro and in vivo assays, two-sided, paired student's t test with 95% confidence or Mann Whitney U test were employed to investigate statistical differences, using GraphPad Prism@5.0 or Microsoft Excel 12. […] Statistical significance of survival between groups in murine experiments was determined using the Log-rank (Mantel-Cox) Test. […]

Structure (SMILES): COc1cccc2c1C(=O)c1c(O)c3c(c(O)c1C2=O)C[C@@](O)(C(C)=O)C[C@@H]3O[C@H]1C[C@H](N)[C@H](O)[C@H](C)O1 [Daunorubicin]
- Cytotoxicity E. coli (E. coli): Down

Structure (SMILES): C[N+](C)([O-])CCNc1ccc(NCC[N+](C)(C)[O-])c2c1C(=O)c1c(O)ccc(O)c1C2=O [AQ4N]
- Cytotoxicity E. coli (E. coli): Up

Structure (SMILES): Nc1nc(F)nc2c1ncn2[C@@H]1O[C@H](COP(=O)(O)O)[C@@H](O)[C@@H]1O [Fludarabine de phosphate]
- Cytotoxicity L. welshimeri (L. welshimeri): Up
- Cytotoxicity E. coli (E. coli): Up

Structure (SMILES): COc1cccc2c1C(=O)c1c(O)c3c(c(O)c1C2=O)C[C@@](O)(C(=O)CO)C[C@@H]3O[C@H]1C[C@H](N)[C@H](O)[C@H](C)O1 [Doxorubicin]
- Cytotoxicity E. coli (E. coli): Down

Structure (SMILES): CC1(C)CCC2=C(O1)c1ccccc1C(=O)C2=O [B-Lapachone]
- Cytotoxicity E. coli (E. coli): Down

Structure (SMILES): Nc1nc(=O)[nH]cc1F [5-fluorocytosine]
- Cytotoxicity E. coli (E. coli): Up

Structure (SMILES): COc1cc([C@@H]2c3cc4c(cc3[C@@H](O[C@@H]3O[C@@H]5CO[C@@H](C)O[C@H]5[C@H](O)[C@H]3O)[C@H]3COC(=O)[C@H]23)OCO4)cc(OC)c1OP(=O)(O)O [Etoposide phosphate]
- Cytotoxicity E. coli (E. coli): Down

Structure (SMILES): O=C1c2c(O)ccc(O)c2C(=O)c2c(NCCNCCO)ccc(NCCNCCO)c21 [Mitoxantrone]
- Cytotoxicity E. coli (E. coli): Down

Structure (SMILES): O=c1[nH]c(=O)n(C2CCCO2)cc1F (stereo not drawn) [Tegafur]
- Cytotoxicity E. coli (E. coli): Up

Structure (SMILES): CC1=CC(=O)c2ccccc2C1=O [Menadione]
- Cytotoxicity E. coli (E. coli): Down

Structure (SMILES): CC(=O)[C@]1(O)Cc2c(O)c3c(c(O)c2[C@@H](O[C@H]2C[C@H](N)[C@H](O)[C@H](C)O2)C1)C(=O)c1ccccc1C3=O [Idarubicin]
- Cytotoxicity E. coli (E. coli): Down

Structure (SMILES): Nc1ccn([C@@H]2O[C@H](CO)[C@@H](O)C2(F)F)c(=O)n1 [Gemcitabine]
- Cytotoxicity E. coli (E. coli): Down
- median survival post Day 0 (CT26 tumours; gemcitabine alone group (PBS i.t.), 60 mg/kg i.p. five times at three day intervals): 28 days
- median survival post Day 0 (CT26 tumours; gemcitabine+bacteria group, E. coli i.t., gemcitabine 60 mg/kg i.p. five times at three day intervals, P=0.008 vs gemcitabine alone): 17 days

Structure (SMILES): Nc1nc(Cl)nc2c1ncn2[C@H]1C[C@H](O)[C@@H](CO)O1 [Cladribine]
- Cytotoxicity E. coli (E. coli): reduced cytotoxic effect and Down

Structure (SMILES): OC[C@H]1O[C@@H](n2cnc3c(S)ncnc32)C[C@@H]1O [6-Mercaptopurine-2′-deoxyriboside]
- Cytotoxicity E. coli (E. coli): Up

Structure (SMILES): NC(=O)c1cc(N2CC2)c([N+](=O)[O-])cc1[N+](=O)[O-] [CB1954]
- Cytotoxicity E. coli (E. coli): Up
- median survival post Day 0 (CT26 tumours; CB1954+bacteria group, E. coli i.t., CB1954 20 mg/kg i.p. at 3 day intervals, P=0.0374 vs CB1954 alone): 26 days
- median survival post Day 0 (CT26 tumours; CB1954 alone group (PBS i.t.), 20 mg/kg i.p. at 3 day intervals): 8 days

Structure (SMILES): Nc1ncnc2c1ncn2[C@@H]1O[C@H](CO)[C@@H](O)[C@@H]1O [Vidarabine]
- Cytotoxicity E. coli (E. coli): Down
